Laboratory results as given in PubChem BioAssay AID1288 (Columbia University Molecular Screening Center, 2008).
The source made the active and inactive calls. How the calls were made is not given here.

assay: inhibitors of TNFa-induced E-selectin expression, confirmation, imaging, retest plus dose response, cell count (AID 1288); details: human endothelial cells, TNFa-induced E-selectin, imaging; at 2 µM; active compounds read high;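 further: 0% = stimulated vehicle wells and 100% = unstimulated vehicle wells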

| Structure (SMILES) | inhibition |
| --- | --- |
| Cc1ccc(CNc2ccc(S(=O)(=O)N3CCOCC3)cc2[N+](=O)[O-])cc1 | 0.77% (inactive) |
| CCC(C(=O)N1CCc2cc(OC)c(OC)cc2C1)c1ccccc1 (stereo not given) | -0.78% (inactive) |
| COc1ccc(NC(=O)c2cccnc2Cl)c(S(=O)(=O)N2CCOCC2)c1 | 6.27% (inactive) |
| CCOC(=O)c1ccc(Nc2cc(C)nc(N3CCOCC3)n2)cc1 | 5.21% (inactive) |
| Cc1nc2oc(C(=O)c3ccccc3)c(N)c2c2c1COC(C)(C)C2 | 0.22% (inactive) |
| Cn1c(CCNC(=O)c2ccc(Cl)c(Cl)c2)nnc1SCc1ccc(Cl)c(Cl)c1 | 6.96% (inactive) |
| O=c1cc(C(F)F)oc2c1ccc1ccccc12 | -6.72% (inactive) |
| COc1cc(C2C(C#N)=C(N)Oc3c2oc(CO)cc3=O)cc(OC)c1OC (stereo not given) | 10.9% (inactive) |
| CC(C)Cn1c(-c2cccs2)nc2ccccc21 | 25.7% (inactive) |
| CC(=O)c1ccc(NC(=S)N2CC(C)CC(C)C2)cc1 (stereo not given) | -4.33% (inactive) |
| O=C(CSc1ncn(-c2ccccc2)n1)Nc1ccc2c(c1)OCCO2 | 14.5% (inactive) |
| CC(C)C(C(=O)O)N1CCS(=O)(=O)CC1 (stereo not given) | 7.68% (inactive) |
| CN(CC(=O)Nc1ccc(Cl)cc1)c1ccc(S(=O)(=O)N2CCCCC2)cc1[N+](=O)[O-] | 7.17% (inactive) |
| CC(C)CCNC(=O)c1nnc(Cc2ccc(Cl)cc2)o1 | 4.7% (inactive) |
| Fc1ccccc1SCc1nnc(-c2ccccc2Br)o1 | 9.24% (inactive) |
| COc1ccc2nc(NC(=O)CSC3=NCCS3)sc2c1 | -0.86% (inactive) |
| Cc1ccc(NC(=O)c2ccc(OC(=O)CCN3C(=O)c4ccccc4C3=O)cc2)cc1 | 42.6% (inactive) |
| COCCn1c(SCC(=O)c2ccc(Cl)cc2)nnc1C(C)C | -5.2% (inactive) |
| CC1Cc2cc(/C(O)=C3/C(=O)C(=O)N(CCCn4ccnc4)C3c3ccncc3)ccc2O1 (stereo not given) | 5.53% (inactive) |
| COC(=O)CCC(=O)Nc1nc(-c2ccccc2)cs1 | 16.6% (inactive) |
| Cc1nc2ccccc2c(=O)n1/N=C/c1ccc(O)cc1 | 4.58% (inactive) |
| COc1cc(CN2CCN(c3ccc(C)cc3)CC2)cc([N+](=O)[O-])c1O | 24.7% (inactive) |
| CCN(/N=C/c1ccc(Cl)cc1)c1cc(=O)n(C)c(=O)[nH]1 | 12.2% (inactive) |
| CN(c1ccc(C(=O)NCC2CCCO2)cc1)S(C)(=O)=O (stereo not given) | 6.07% (inactive) |
| CCOC(=O)c1c(NC(C)=O)sc2c(O)cccc12 | 35.6% (inactive) |

| Structure (SMILES) | inhibition |
| --- | --- |
| COc1ccc(OC)c2sc(NC(=O)CCS(=O)(=O)c3ccccc3)nc12 | 5.59% (inactive) |
| COc1ccc(S(=O)(=O)Nc2ccc(C)cc2)cc1N(C)S(=O)(=O)c1ccc(Cl)cc1 | 3.82% (inactive) |
| O=c1cc(-c2ccccc2)c2ccccc2[nH]1 | 35% (inactive) |
| CCc1cc(OCCOCCN(C)C)ccc1Cl | 8.67% (inactive) |
| COc1cc(NC2c3ncccc3C(=O)N2Cc2ccco2)cc(OC)c1 (stereo not given) | 7.75% (inactive) |
| CC(C)[C@H](NC(=O)CCn1nnc2ccccc2c1=O)C(=O)O | 4.34% (inactive) |
| CCC(=O)N1CCc2cc(Br)cc(S(=O)(=O)NCc3ccco3)c21 | 0.76% (inactive) |
| COc1ccc2c(c1)C1CC(C)(NC(=O)C1S(=O)(=O)c1ccc(F)cc1)O2 (stereo not given) | 28.9% (inactive) |
| O=S(=O)(c1ccccc1)N1CCN(CC(O)COc2ccc3c(c2)CCC3)CC1 (stereo not given) | 4.13% (inactive) |
| c1ccc(NC2=NCCCCS2)cc1 | 15.9% (inactive) |
| Cn1cc([N+](=O)[O-])c(C(=O)Nc2ccc(Br)cn2)n1 | 7.96% (inactive) |
| N=C(N)SCc1nc2ccccc2c(=O)n1-c1ccccc1 | 9.67% (inactive) |
| Cc1cc(C(=O)N2CCc3ccccc32)c2ccccc2n1 | 2.81% (inactive) |
| CCS(=O)(=O)c1ccc2oc(Nc3ccc(C(C)C)cc3)nc2c1 | 4.39% (inactive) |
| Cn1nnnc1SCC(=O)Nc1cccc([N+](=O)[O-])c1 | 2.78% (inactive) |
| CCCn1c(CN2CCN(c3cccc(Cl)c3)CC2)nc2c1c(=O)n(C)c(=O)n2C | 7.73% (inactive) |
| Cn1c(CCNC(=O)C2CCCCC2)nc2cc(NC(=O)c3cccs3)ccc21 | 3.87% (inactive) |
| O=C(CN1CCN(Cc2ccccc2Cl)C1=O)NCc1ccco1 | 8.68% (inactive) |
| Fc1ccc(-c2n[nH]c(=S)n2/N=C/c2c[nH]c3ccccc23)cc1 | 27.9% (inactive) |
| COc1ccc(S(=O)(=O)NCc2csc(-c3cccnc3)n2)cc1 | 4.07% (inactive) |
| N#Cc1ccsc1NC(=O)COC(=O)c1ccc2ccccc2c1 | 5.46% (inactive) |
| COc1ccccc1-n1c(=O)[nH]c2c(C(N)=O)nc(C3CCCCC3)nc21 | 13.4% (inactive) |
| Cc1cccc(NC(=O)Nc2ccc(C#N)cc2)n1 | 4.19% (inactive) |
| Oc1ccccc1Nc1nc(NCC2CCCO2)c2ccccc2n1 (stereo not given) | 5.39% (inactive) |
| Cc1cccc(NC(=S)Nc2ccccn2)c1C | -0.54% (inactive) |
